Experimental data published in patent US20240383910A1, “SMALL MOLECULE BTK DEGRADERS AND METHODS OF USE THEREOF” (Baylor College of Medicine, priority 2023, published 2024).
Blank lines part the entries; values can stand above or below the compound they belong to.

Assays:
BTK [1] = target: T1, BTK (Homo sapiens, UniProt Q06187); assay: TR-FRET saturation binding assay of the BTK tracer
Method: To measure the binding affinities between PROTACs and BTK, a time-resolved fluorescence resonance energy transfer (TR-FRET) competition binding assay was developed. A BTK tracer was synthesized by conjugating an ibrutinib-based reversible noncovalent binder with the BODIPY-FL dye (FIG. 1). […] In the presence of the BTK tracer, competition assays were performed to measure the binding affinities between BTK and its inhibitors and PROTACs. […] The very weak BTK binding affinities for PS-RC-1, PS-RC-2, PS-RC-3 and PS-RC-4 explain their minimal BTK degradation effects in cells and further support that the observed growth inhibitory effect of PS-RC-1 in Mino cells is unrelated to the BTK pathway.
Target sequence in this assay (Q06187 whole entry, species assumed): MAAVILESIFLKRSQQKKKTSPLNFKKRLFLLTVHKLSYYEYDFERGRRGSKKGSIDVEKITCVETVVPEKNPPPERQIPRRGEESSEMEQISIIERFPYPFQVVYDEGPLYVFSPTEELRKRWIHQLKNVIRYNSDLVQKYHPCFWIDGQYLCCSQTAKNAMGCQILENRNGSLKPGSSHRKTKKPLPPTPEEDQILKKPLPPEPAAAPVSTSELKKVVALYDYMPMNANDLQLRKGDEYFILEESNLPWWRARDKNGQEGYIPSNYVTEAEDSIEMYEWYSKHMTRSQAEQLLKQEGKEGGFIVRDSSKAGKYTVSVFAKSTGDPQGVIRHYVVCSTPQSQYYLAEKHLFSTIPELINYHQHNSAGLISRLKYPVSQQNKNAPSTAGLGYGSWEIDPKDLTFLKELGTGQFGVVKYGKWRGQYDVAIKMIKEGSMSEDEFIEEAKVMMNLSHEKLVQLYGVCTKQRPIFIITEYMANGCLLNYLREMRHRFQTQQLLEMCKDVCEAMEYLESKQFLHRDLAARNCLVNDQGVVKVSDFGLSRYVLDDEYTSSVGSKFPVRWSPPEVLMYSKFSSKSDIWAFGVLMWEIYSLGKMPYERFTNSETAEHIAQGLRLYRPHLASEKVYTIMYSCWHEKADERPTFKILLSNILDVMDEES

GSPT1 = target: T2, GSPT1 (Homo sapiens, UniProt P15170+Q96SW2); assay: Western blotting for GSPT1 in Mino cells; type: cell-based; conditions: up to 1000 nM, 24 h, Western blot
T2 construct: host or cells: Mino
T2 sequence (P15170 whole entry): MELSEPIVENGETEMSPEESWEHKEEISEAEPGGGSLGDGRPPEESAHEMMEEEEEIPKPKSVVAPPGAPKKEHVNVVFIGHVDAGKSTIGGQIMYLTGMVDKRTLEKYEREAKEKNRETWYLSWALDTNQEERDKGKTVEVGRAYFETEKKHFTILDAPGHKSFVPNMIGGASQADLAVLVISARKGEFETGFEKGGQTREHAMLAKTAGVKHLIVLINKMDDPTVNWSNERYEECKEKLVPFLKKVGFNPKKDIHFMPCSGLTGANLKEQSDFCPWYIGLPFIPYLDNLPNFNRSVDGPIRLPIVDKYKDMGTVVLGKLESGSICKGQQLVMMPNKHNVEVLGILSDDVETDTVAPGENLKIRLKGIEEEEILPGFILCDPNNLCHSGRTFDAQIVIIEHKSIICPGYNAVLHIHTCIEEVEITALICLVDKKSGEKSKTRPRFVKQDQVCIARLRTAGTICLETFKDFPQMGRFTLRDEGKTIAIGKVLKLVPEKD
T2 sequence (Q96SW2 whole entry): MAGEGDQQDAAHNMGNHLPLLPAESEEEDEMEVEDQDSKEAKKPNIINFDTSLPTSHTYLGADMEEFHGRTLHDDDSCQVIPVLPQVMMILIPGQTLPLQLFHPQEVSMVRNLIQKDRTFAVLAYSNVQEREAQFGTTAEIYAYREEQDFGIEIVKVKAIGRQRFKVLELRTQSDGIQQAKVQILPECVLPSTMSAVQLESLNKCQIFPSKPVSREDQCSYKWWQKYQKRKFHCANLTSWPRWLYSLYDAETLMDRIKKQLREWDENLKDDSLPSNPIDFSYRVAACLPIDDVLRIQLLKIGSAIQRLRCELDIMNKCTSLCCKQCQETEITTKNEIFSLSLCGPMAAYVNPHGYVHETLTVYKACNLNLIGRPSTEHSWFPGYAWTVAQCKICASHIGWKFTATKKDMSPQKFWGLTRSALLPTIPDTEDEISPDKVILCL
T2 sequence (Q16531 whole entry partner): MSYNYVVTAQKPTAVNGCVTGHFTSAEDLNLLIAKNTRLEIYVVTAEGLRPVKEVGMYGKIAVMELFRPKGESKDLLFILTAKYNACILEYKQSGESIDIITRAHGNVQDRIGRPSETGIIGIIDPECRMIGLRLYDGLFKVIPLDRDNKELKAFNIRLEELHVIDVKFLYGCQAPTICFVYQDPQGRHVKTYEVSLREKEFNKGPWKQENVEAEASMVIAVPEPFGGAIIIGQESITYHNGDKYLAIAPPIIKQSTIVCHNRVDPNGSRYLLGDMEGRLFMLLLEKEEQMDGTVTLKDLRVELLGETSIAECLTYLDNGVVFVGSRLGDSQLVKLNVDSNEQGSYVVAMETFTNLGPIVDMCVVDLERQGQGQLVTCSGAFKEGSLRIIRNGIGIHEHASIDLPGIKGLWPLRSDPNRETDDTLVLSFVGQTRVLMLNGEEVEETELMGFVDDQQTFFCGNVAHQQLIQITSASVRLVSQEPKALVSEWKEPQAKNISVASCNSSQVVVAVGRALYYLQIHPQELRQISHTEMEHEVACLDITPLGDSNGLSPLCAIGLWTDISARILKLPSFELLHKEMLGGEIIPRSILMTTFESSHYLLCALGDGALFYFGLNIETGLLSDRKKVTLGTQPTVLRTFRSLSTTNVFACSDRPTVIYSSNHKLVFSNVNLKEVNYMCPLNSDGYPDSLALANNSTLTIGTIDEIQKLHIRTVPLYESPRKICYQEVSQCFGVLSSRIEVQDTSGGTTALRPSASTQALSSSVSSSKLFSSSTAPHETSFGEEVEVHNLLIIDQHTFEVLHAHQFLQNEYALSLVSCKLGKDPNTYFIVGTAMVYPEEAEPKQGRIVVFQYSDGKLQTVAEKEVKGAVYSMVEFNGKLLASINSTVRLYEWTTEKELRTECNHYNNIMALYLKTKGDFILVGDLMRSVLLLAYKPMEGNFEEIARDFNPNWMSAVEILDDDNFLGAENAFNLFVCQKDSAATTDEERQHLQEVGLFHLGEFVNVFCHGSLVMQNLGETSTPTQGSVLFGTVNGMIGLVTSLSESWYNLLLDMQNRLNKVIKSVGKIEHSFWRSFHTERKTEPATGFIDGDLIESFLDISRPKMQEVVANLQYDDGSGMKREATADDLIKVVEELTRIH
Method: Panel a. […] Panel b. […] Panel c. […] Panel d-e. […] Panel g.
Mino cells were seeded into the wells of six-well plates at the density of 5×10^5 cells per mL in 2 mL of complete RPMI-1640 culture medium. After overnight adaptation, cells were treated with serially diluted compounds (from 1,000-1.6 nM, 5-fold dilution) for 24 hours. After treatment, whole cell lysates for immunoblotting were prepared by pelleting Mino cells at 4° C. and 200×g for 5 minutes. The resulting cell pellets were washed once with ice-cold PBS and lysed in 1×RIPA lysis buffer (Alfa Aesar, Cat. No. J62524) supplemented with protease and phosphatase inhibitor cocktail (Thermo Fisher, Cat. No. 78430). Lysates were centrifuged at 15,000×g for 10 min at 4° C. and protein concentrations were assessed using BCA assay (Pierce, Cat. No. 23225). Same amounts of protein (30 μg) for each sample were loaded onto sodium dodecyl sulfate-polyacrylamide gel, separated by electrophoresis (Bio-Rad) at 120 V for 1.5 h and transferred to PVDF membrane using a Transblot Turbo system (Bio-Rad). […] All Western blots were subsequently processed and quantified with Imager software ImageJ and protein level was normalized to the B-actin loading controls.

BTK [2] = target: T1, BTK; assay: Western blotting for BTK in Mino cells; type: cell-based; design: host or cells: Mino; conditions: 24 h, Western blot
Method: Mino cells were seeded into the wells of six-well plates at the density of 5×10^5 cells per mL in 2 mL of complete RPMI-1640 culture medium. After overnight adaptation, cells were treated with serially diluted compounds (from 1,000-1.6 nM, 5-fold dilution) for 24 hours. After treatment, whole cell lysates for immunoblotting were prepared by pelleting Mino cells at 4° C. and 200×g for 5 minutes. The resulting cell pellets were washed once with ice-cold PBS and lysed in 1×RIPA lysis buffer (Alfa Aesar, Cat. No. J62524) supplemented with protease and phosphatase inhibitor cocktail (Thermo Fisher, Cat. No. 78430). Lysates were centrifuged at 15,000×g for 10 min at 4° C. and protein concentrations were assessed using BCA assay (Pierce, Cat. No. 23225). Same amounts of protein (30 μg) for each sample were loaded onto sodium dodecyl sulfate-polyacrylamide gel, separated by electrophoresis (Bio-Rad) at 120 V for 1.5 h and transferred to PVDF membrane using a Transblot Turbo system (Bio-Rad). After blocking for 1 h at room temperature in 1% BSA-TBST, the membranes were immunoblotted with the specified primary antibodies at the dilution of 1:1000 in TBST (Cell Signaling Technology: anti-BTK Cat. No. 8547, anti-IKZF1 Cat. No. 14859, anti-IKZF3 Cat. No. 15103, anti-β-actin Cat. No. 4570, Proteintech: anti-GSPT1, Cat. No. 10763-1-AP) overnight at 4° C. and the HRP-conjugated secondary antibodies (Cell Signaling, Cat. No. 7074, 1:1000 in TBST) for 1 h at room temperature. Imaging was performed using the ECL Prime chemiluminescent Western blot detection reagents (Kindle Biosciences, Cat. No. R1100) by visualization of the blots with an Imager (Kindle Biosciences, Cat. No. D1001). All Western blots were subsequently processed and quantified with Imager software ImageJ and protein level was normalized to the B-actin loading controls.
Target sequence in this assay (Q06187 whole entry): as the sequence (Q06187 whole entry, species assumed) above

BTK-nLuc fusion protein [3] = target: T3, BTK-nLuc fusion protein (Homo sapiens, UniProt Q06187); assay: BTK-nLuc endpoint degradation assay in HEK-293T cells; type: cell-based; conditions: HEK-293T cells stably expressing BTK-nLuc, 24 h
T3 construct: Addgene (vector) HsCD00514411; pLenti6.2-ccdB-Nanoluc 87078; host or cells: HEK-293T17
T3 sequence (Q06187 whole entry, the tested form may be a part): as the sequence (Q06187 whole entry, species assumed) above
T3 sequence (Q96SW2 whole entry, further chain, the tested form may be a part): as the sequence (Q96SW2 whole entry) above
T3 sequence (Q16531 whole entry partner, the tested form may be a part): as the sequence (Q16531 whole entry partner) above
Method: (§1) DD-03-171 is a known BTK degrader and used as a positive control. Panel f: HEK-293T cells stably expressing a BTK-nLuc fusion protein were treated with indicated compounds (same as in a-e) for 24 h. The BTK degradation was determined by evaluating luminescence signals of NanoLuc.
(§2) The nanoluc activity was determined using the furimazine substrate (Promega, Cat. No. N1110). Briefly, after 4 h incubation of indicated compounds, cells were directly lysed by addition of 100 μL of nanoluciferase detection solution, containing lysis buffer and furimazine (1/50 dilution). For the 24-hour treatment group, the old medium was replaced with 100 μL fresh opti-MEM, followed by the addition of equal volume of lysis buffer plus furimazine (1/50 dilution).

BTK-nLuc fusion protein [4] = target: T4, BTK-nLuc fusion protein (Homo sapiens, UniProt Q06187+Q96SW2); assay: as above; type: cell-based; conditions: HEK-293T cells stably expressing BTK-nLuc, 24 h
T4 construct: Addgene (vector) HsCD00514411; pLenti6.2-ccdB-Nanoluc 87078; host or cells: HEK-293T17
T4 sequence (Q06187 whole entry, the tested form may be a part): as the sequence (Q06187 whole entry, species assumed) above
T4 sequence (Q96SW2 whole entry, the tested form may be a part): as the sequence (Q96SW2 whole entry) above
T4 sequence (Q16531 whole entry partner, the tested form may be a part): as the sequence (Q16531 whole entry partner) above
Method: as §1, §2

BTK [5] = target: T1, BTK; assay: BTK ligand competition assay in Ramos cells (Western blotting for BTK); type: cell-based; design: host or cells: Ramos; conditions: co-treated with 100 nM PS-2, 24 hours, PS2W at 50 μM
Target sequence in this assay (Q06187 whole entry): as the sequence (Q06187 whole entry, species assumed) above

SMILES: CC1=CC(C)=[N+]2C1=Cc1ccc(CCC(=O)NCCCN(C)CCCC(=O)N3CCC[C@@H](n4nc(-c5ccc(Oc6ccccc6)cc5)c5c(N)ncnc54)C3)n1[B-]2(F)F [BTK tracer]
Kd (BTK [1]): 155 nM

GSPT1 degradation (result in words) (GSPT1): potent GSPT1 degrader
SMILES: Cc1ccc(NC(=O)NCc2ccc3c(c2)CN(C2CCC(=O)NC2=O)C3=O)cc1Cl (centres unmarked) [CC-885, reference compound]

BTK WB Dmax (BTK [2]): 99%
DC50 (BTK [2]; read-out: BTK WB DC50): 0.9 nM
BTK degradation (result in words) (BTK [2]; up to 1000 nM): potently induces BTK degradation
BTK-nLuc Dmax (BTK-nLuc fusion protein [3]): 96%
DC50 (BTK-nLuc fusion protein [4]): 25.9 nM
SMILES: Cc1c(NC(=O)c2ccc(C(C)(C)C)cc2)cccc1-c1cn(C)c(=O)c(Nc2ccc(C(=O)N3CCN(CCCCCCNC(=O)CNc4cccc5c4C(=O)N(C4CCC(=O)NC4=O)C5=O)CC3)cc2)n1 (centres unmarked) [DD-03-171, reference compound]

competition with PS-2 induced BTK degradation (BTK ligand) (BTK [5]): cannot completely compete out
SMILES: CN1CCN(c2ccc(Nc3nccc(Oc4ccccc4)n3)cc2)CC1 [PS2W]
